Assay results from patent US6710077B1, “Use of thiocarboxanilide derivatives for the preparation of a medicament for preventing the transmission of HIV to uninfected cells and contraceptive compositions comprising the said derivatives” (Uniroyal Chemical Company, Inc., priority 1996, dated 2004).

Columns and labels:
HIV-1 = experiment: Preincubation of isolated HIV-1 with test compounds, then infection of PHA-activated CBMC; settings: 2 hours at 37° C., drug removed, RT activity and p24 on day 7, FIG. 1
Experimental: Identical viral inocula (with respect to viral p24 levels) were then added to PHA-activated CBMC. Viral infectivity was assessed by measurement of RT activity in cell-free culture supernatants after 7 days incubation of cells and virus. […] The results are averages ±S.D. of triplicate determinations from three separate experiments.
All cells were cultured in RPMI medium containing 10% fetal bovine serum. HIV-1 stocks were propagated by subculture in MT-2 cells; aliquots of the cell-free culture supernatants were generally used as viral inocula. In some cases, virus was further concentrated from these cell-free supernatants by ultracentrifugation. CBMC were prestimulated with phytohemagglutinin (PHA) prior to use in infection experiments, as described in Rooke et al, Virology 176: 205-215 (1990). Stock solutions of the test compounds were prepared in dimethyl sulfoxide (DMSO). […] Virus production was assessed by measurement of RT activity and viral p24 antigen levels in the culture supernatants.
After incubation, drug-free RPMI was added to a final volume of 15 ml and the diluted sample was concentrated to a final volume of 0.7 ml using a Centriprep-100 centrifugal concentrating device, according to manufacturer's directions. […] On day 7, culture supernatants were isolated and HIV production assessed by measurement of RT activity and p24 antigen levels in the cell-free supernatants.

[1] = tested on: PBL cells isolated from blood of HIV-1 infected patients; experiment: Incubation of PBL from HIV-1 infected patients with compound, then co-culture with CBMC; type: cell-based; settings: for infectivity of HIV-1 produced by patient PBL: 10 μM, 2 hr at 37° C., drug removed, co-culture with CBMC, p24 antigen, FIG. 3
Experimental: FIG. 3 depicts the effect of pretreatment of peripheral blood lymphocytes (PBL) from HIV-1 infected patients with Compound IA on the subsequent virus infectivity of CBMC cells. 2×10^6 isolated PBL cells were incubated for 2 hours with media only (●), 10 μM nevirapine (▪), or 10 μM Compound IA (▴), then residual drug was removed. The cells were then co-cultured with 2×10^6 CBMC cells and p24 production was monitored.
PBL cells (2×10^6 cells) isolated from blood of HIV-1 infected patients were incubated with media, 10 μM nevirapine and 10 μM Compound IA, in a total volume of 1 ml for 2 hr at 37° C. Excess drug was then removed by pelleting the cells by centrifugation at 300×g for 10 min and removal of the medium. The cell pellet was washed by suspension in 10 ml media, followed by centrifugation. This washing step was repeated twice. The final cell pellet was resuspended in 1 ml media, then co-cultured with 1 ml of activated CBMC (2×10^6 cells) The culture medium was changed every two days, and fresh activated CBMC (2×10^6 cells) were added once a week. HIV-1 production was monitored by measurement of p24 antigen levels in cell-free culture supernatants.
FIG. 3 illustrates the results obtained using PBL from three different patients.

[2] = tested on: HIV-1 infection of uninfected MT-2 cells; settings: MT-2 cells pretreated with 2 μM, drug removed, continued presence of HIV-1
Experimental: FIG. 4A: Uninfected MT2 cells were incubated for 18 hours with varying concentrations of Compound IA in 1 ml media, then the cells were pelleted by centrifugation, and washed twice by resuspension in 10 ml medium followed by centrifugation. The cells were exposed to identical inocula of HIV-1 and cultured in the absence of added drug. Four days after removal of Compound IA, the extent of HIV-1 infection was assessed by measurement of syncytia formation (●), viral p24 antigen levels (▴), and RT activity (∘), in cell-free supernatants. […] Uninfected MT2 cells were incubated for 18 hours in the absence (∘) or the presence of 0.5 μM (▴), 1 μM (∇), or 2 μM (●), of Compound IA. […] Viral cytopathicity was scored by microscopic assessment of syncytia formation. […]
FIG. 5A: Uninfected MT2 cells were incubated for 18 hours in the absence (▪) or the presence (●) of 2 μM of Compound IA, then the cells were isolated and cultured in the absence of drug. At various times thereafter, HIV-1 was added and virus infectivity assessed by microscopic analysis of syncytium formation. […]
All cells were cultured in RPMI medium containing 10% fetal bovine serum. […] Virus production was assessed by measurement of RT activity and viral p24 antigen levels in the culture supernatants. […]

[3] = tested on: HIV-1 chronically-infected H9 cells; experiment: Incubation of HIV-1 chronically-infected H9 cells with test compounds, then infectivity on MT-2 cells; type: cell-based
Source text: FIG. 2 depicts the effect of pretreatment of chronically-infected H9 cells with Compound IA or UC84 on (A) virus particle release from H9 cells during drug exposure, as assessed by measurement of HIV-1 p24 levels; (B) infectivity of isolated virus produced by H9 cells during drug treatment, as assessed by the ability to subsequently infect MT2 cells in the absence of drug; and (C) the ability of Compound IA-pretreated chronically-infected H9 cells to subsequently infect MT2 cells in co-culture experiments carried out in the absence of drug. The data illustrated for (B) and (C) were obtained four days after exposure of MT2 cells to virus or H9 cells, respectively. (∘) Compound UC84; (●) Compound IA.
The cells were then separated from the culture supernatants by centrifugation at 1000×g for 10 min. The virus particles were isolated from the culture supernatants and from residual Compound IA using Centriprep-100 centrifugal concentrating devices and the dilution/concentration protocol described above in Example 1. The pelleted H9 cells were washed by suspension in 10 ml RPMI, followed by centrifugation at 1000×g for 10 min. The cell pellet was resuspended in 4 ml RPMI/10% FBS, and used in co-culture experiments as described below.
Aliquots of the final concentrated HIV suspension were added to MT-2 cells ([…] cells/ml). Virus infectivity was assessed 6 days post-infection by analysis of syncytium formation, and RT activity and p24 antigen in the MT-2 cell culture supernatants. Similarly, aliquots of the drug-treated H9 cells were added to MT-2 cells (3×10^5 cells/ml) to give a final MT-2:H9 cell ratio of 30:1. Cells were co-cultured for 4 days, and HIV infection of MT-2 cells was scored by assessing syncytium formation and by analysis of RT activity in the culture supernatants.

| Structure (SMILES) | viral infectivity after preincubation of isolated HIV-1 with compound (HIV-1) | infectivity of HIV-1 produced by patient PBL [1] | duration of resistance to the cytopathic effect of HIV-1 [2] | resistance of pretreated cells to the cytopathic effect of HIV-1 ([2]; syncytium formation) | viral infectivity after 30 days co-culture with uninfected CBMC ([1]; 10 μM pretreatment of patient PBL, 30 days co-culture) | persistence of attenuated infectivity following removal of extracellular compound ([3]; chronically-infected H9 cells) | infectivity of virus produced by H9 cells following removal of compound ([3]; pretreated, washed H9 cells co-cultured with MT-2 cells in absence of drug) | infectivity of virus particles isolated after exposure of chronically-infected H9 cells ([3]; virus isolated from culture supernatants, added to MT-2 cells in absence of drug, FIG. 2) |
| --- | --- | --- | --- | --- | --- | --- | --- | --- |
| Cc1ccnc2c1NC(=O)c1cccnc1N2C1CC1 [nevirapine, reference compound] | No viral inactivation | unable to significantly delay viral infectivity | – | – | – | – | – | – |
| CC(C)=CCOc1cc(NC(=S)c2ccoc2C)ccc1Cl [Compound IA, N-[4-chloro-3-(3-methyl-2-butenyloxy)phenyl]-2-methyl-3-furancarbothioamide] | rendered non-infectious | abolished the infectivity | at least 9 days | completely resistant | No viral infectivity | at least 4 days | also attenuated in infectivity | significantly attenuated in infectivity |
